Read-outs that look alike come from different tables or passages of the source.
Experiments:
[1] = Parallel artificial membrane permeability assay (PAMPA); conditions: pH 7.4
[2] = biological target: T1, rat NHE-3 (Rattus norvegicus, UniProt P26433); assay: Cell-based assay of NHE-3 activity (Pharmacological Test Example 1); conditions: for IC50: read-out: rat NHE-3 Average pIC50 (converted)
T1 construct: expressed in transfected cells; host or cells: Opossum kidney (OK) cells (ATCC), electroporated
T1 sequence (P26433 29-831): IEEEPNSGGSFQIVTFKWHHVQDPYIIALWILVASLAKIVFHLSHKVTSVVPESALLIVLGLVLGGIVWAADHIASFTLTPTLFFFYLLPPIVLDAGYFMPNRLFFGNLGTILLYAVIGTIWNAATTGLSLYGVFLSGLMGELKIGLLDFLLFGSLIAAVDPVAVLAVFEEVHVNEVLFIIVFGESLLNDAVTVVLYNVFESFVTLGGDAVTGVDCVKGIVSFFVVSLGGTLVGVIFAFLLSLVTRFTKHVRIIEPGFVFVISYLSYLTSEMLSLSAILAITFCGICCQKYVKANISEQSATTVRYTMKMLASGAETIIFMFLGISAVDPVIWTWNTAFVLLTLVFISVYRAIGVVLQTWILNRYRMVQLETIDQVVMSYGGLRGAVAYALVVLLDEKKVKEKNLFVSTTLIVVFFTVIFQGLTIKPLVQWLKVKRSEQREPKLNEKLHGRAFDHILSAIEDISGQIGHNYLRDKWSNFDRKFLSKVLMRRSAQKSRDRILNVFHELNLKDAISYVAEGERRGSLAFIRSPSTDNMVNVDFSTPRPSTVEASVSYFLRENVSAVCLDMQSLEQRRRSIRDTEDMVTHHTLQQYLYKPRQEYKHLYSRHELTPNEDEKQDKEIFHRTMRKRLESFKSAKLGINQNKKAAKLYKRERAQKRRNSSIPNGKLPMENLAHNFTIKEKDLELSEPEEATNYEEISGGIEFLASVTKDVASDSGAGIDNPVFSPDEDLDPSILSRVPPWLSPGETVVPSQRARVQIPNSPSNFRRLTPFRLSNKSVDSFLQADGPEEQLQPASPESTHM
In short: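 OK cells electroporated with rat NHE-3, loaded with 5 uM BCECF-AM in NH4Cl-HEPES (pH 7.4) for 30 min at room temperature, then acid-loaded 10 min in Na+-free choline buffer. Na+-dependent H+ antiport read as initial rate of pH-dye change; pIC50 from 3-6 replicate averages.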

[3] = Determination of compound Cmax and AUC; assay type: in vivo; conditions: rat; Sprague-Dawley rats, oral gavage, serum 0.5-4 h; actual oral dose (mg/kg) given
Method: Sprague-Dawley rats were orally gavaged with test article (2.5 mg/kg) and serum was collected at 0.5, 1, 2 and 4 h. Serum samples were treated with acetonitrile, precipitated proteins removed by centrifugation and supernatants analyzed by LC/MS/MS and compared against a standard curve to determine compound concentration. All compounds were orally dosed at the dosage shown, and pharmacokinetic parameters determined as described in the text.

[4] = OK cells expressing rat NHE-3, 0-30 uM test compound, 5 uM EIPA

Structure (SMILES) | Papp A→B at 3 h, 20 uM [1] | IC50 [2, 4] | AUC [3] | Cmax [3] | rat NHE-3 Average pIC50 [2, 4] | rat NHE-3 Average pIC50 [2]
CN1Cc2c(Cl)cc(Cl)cc2C(c2ccc(S(=O)(=O)N(CC(=O)O)CP(=O)(O)O)cc2)C1 (stereo not drawn) [Example 72, 2-(4-(6,8-dichloro-2-methyl-1,2,3,4-tetrahydroisoquinolin-4-yl)-N-(phosphonomethyl)phenylsulfonamido)acetic acid] | 0.2 ×10⁻⁶ cm/s |  |  |  |  | 
CN1Cc2c(Cl)cc(Cl)cc2C(c2cccc(S(=O)(=O)NCCOCCOCCOCCNC(=O)c3ccc(C(=O)NCCOCCOCCOCCNS(=O)(=O)c4cccc(C5CN(C)Cc6c(Cl)cc(Cl)cc65)c4)cc3)c2)C1 (stereo not drawn) [Example 216, N1,N4-bis(2-(2-(2-(2-(3-(6,8-dichloro-2-methyl-1,2,3,4-tetrahydroisoquinolin-4-yl)phenylsulfonamido)ethoxy)ethoxy)ethoxy)ethyl)terephthalamide] |  | < 0.1 µM | < 8.3 ng·h/mL | < 4 ng/mL |  | 
CN1Cc2c(Cl)cc(Cl)cc2C(c2cccc(S(=O)(=O)NCCN(CCNS(=O)(=O)c3cccc(C4CN(C)Cc5c(Cl)cc(Cl)cc54)c3)CCNS(=O)(=O)c3cccc(C4CN(C)Cc5c(Cl)cc(Cl)cc54)c3)c2)C1 (stereo not drawn) [Example 16, N,N′,N″-(2,2′,2″-nitrilotris(ethane-2,1-diyl))tris(3-(6,8-dichloro-2-methyl-1,2,3,4-tetrahydroisoquinolin-4-yl)benzenesulfonamide)] | < 0.02 ×10⁻⁶ cm/s |  |  |  |  | 
CN1Cc2c(Cl)cc(Cl)cc2C(c2cccc(S(=O)(=O)NCCOCCOCCOCCOCCOCCOCCOCCOCCOCCOCCNC(=O)CCOCCOCCOCCOCCOCCOCCOCCOCCOCCC(=O)NCCOCCOCCOCCOCCOCCOCCOCCOCCOCCOCCNS(=O)(=O)c3cccc(C4CN(C)Cc5c(Cl)cc(Cl)cc54)c3)c2)C1 (stereo not drawn) [Example 217, N1,N31-bis(32-(3-(6,8-dichloro-2-methyl-1,2,3,4-tetrahydroisoquinolin-4-yl)phenylsulfonamido)-3,6,9,12,15,18,21,24,27,30-decaoxadotriacontyl)-4,7,10,13,16,19,22,25,28-nonaoxahentriacontane-1,31-diamide] |  |  | < 10 ng·h/mL | < 10 ng/mL | 6 to 7 | 
CN1Cc2c(Cl)cc(Cl)cc2C(c2cccc(S(=O)(=O)NCCOCCOCCOCCNC(=O)c3cccc(C(=O)NCCOCCOCCOCCNS(=O)(=O)c4cccc(C5CN(C)Cc6c(Cl)cc(Cl)cc65)c4)c3)c2)C1 (stereo not drawn) [Example 228, N1,N3-bis(2-(2-(2-(2-(3-(6,8-dichloro-2-methyl-1,2,3,4-tetrahydroisoquinolin-4-yl)phenylsulfonamido)ethoxy)ethoxy)ethoxy)-ethyl)isophthalamide] |  |  | < 5 ng·h/mL | < 5 ng/mL | 6 to 7 | 
CN1Cc2c(Cl)cc(Cl)cc2C(c2ccc(S(=O)(=O)NCC(=O)NCC(=O)NCC(=O)NCCCCNC(=O)CNC(=O)CNC(=O)CNS(=O)(=O)c3ccc(C4CN(C)Cc5c(Cl)cc(Cl)cc54)cc3)cc2)C1 (stereo not drawn) [Example 204, N,N′-(butane-1,4-diyl)bis(2-(2-(2-(4-(6,8-dichloro-2-methyl-1,2,3,4-tetrahydroisoquinolin-4-yl)phenylsulfonamido)acetamido)acetamido)acetamide)] |  |  | < 2 ng·h/mL | < 2 ng/mL | >7 | 
CN1Cc2c(Cl)cc(Cl)cc2C(c2ccc(S(=O)(=O)NCCOCCOCCNC(=O)NCCOCCOCCNS(=O)(=O)c3ccc(C4CN(C)Cc5c(Cl)cc(Cl)cc54)cc3)cc2)C1 (stereo not drawn) [Example 232, N,N′-(10-oxo-3,6,14,17-tetraoxa-9,11-diazanonadecane-1,19-diyl)bis(4-(6,8-dichloro-2-methyl-1,2,3,4-tetrahydroisoquinolin-4-yl)benzenesulfonamide)] |  |  | < 2 ng·h/mL | < 2 ng/mL |  | <5.0
CN1Cc2c(Cl)cc(Cl)cc2C(c2ccc(S(=O)(=O)NCCOCCOCCOCCNC(=O)c3ccc(C(=O)NCCOCCOCCOCCNS(=O)(=O)c4ccc(C5CN(C)Cc6c(Cl)cc(Cl)cc65)cc4)cc3)cc2)C1 (stereo not drawn) [Example 233, N1,N4-bis(2-(2-(2-(2-(4-(6,8-dichloro-2-methyl-1,2,3,4-tetrahydroisoquinolin-4-yl)phenylsulfonamido)ethoxy)ethoxy)ethoxy)ethyl)terephthalamide] |  |  | < 6.8 ng·h/mL | < 2.6 ng/mL |  | <5.0
CN1Cc2c(Cl)cc(Cl)cc2C(c2cccc(S(=O)(=O)NCCOCCOCCOCCNC(=O)c3ccccc3C(=O)NCCOCCOCCOCCNS(=O)(=O)c3cccc(C4CN(C)Cc5c(Cl)cc(Cl)cc54)c3)c2)C1 (stereo not drawn) [Example 230, N1,N2-bis(2-(2-(2-(2-(3-(6,8-dichloro-2-methyl-1,2,3,4-tetrahydroisoquinolin-4-yl)phenylsulfonamido)ethoxy)ethoxy)ethoxy)-ethyl)phthalamide] |  |  | < 5 ng·h/mL | < 5 ng/mL |  | >7
CN1Cc2c(Cl)cc(Cl)cc2C(c2cccc(S(=O)(=O)NCCOCCOCCOCCNC(=O)NCCCCNC(=O)NCCOCCOCCOCCNS(=O)(=O)c3cccc(C4CN(C)Cc5c(Cl)cc(Cl)cc54)c3)c2)C1 (stereo not drawn) [Example 208, N,N′-(13,20-dioxo-3,6,9,24,27,30-hexaoxa-12,14,19,21-tetraazadotriacontane-1,32-diyl)bis(3-(6,8-dichloro-2-methyl-1,2,3,4-tetrahydroisoquinolin-4-yl)benzenesulfonamide)] |  |  | < 5 ng·h/mL | < 5 ng/mL | >7 | 
CN1Cc2c(Cl)cc(Cl)cc2C(c2ccc(S(=O)(=O)NCCOCCOCCNC(=O)C(O)C(O)C(=O)NCCOCCOCCNS(=O)(=O)c3ccc(C4CN(C)Cc5c(Cl)cc(Cl)cc54)cc3)cc2)C1 (stereo not drawn) [Example 205, N1,N4-bis(2-(2-(2-(4-(6,8-dichloro-2-methyl-1,2,3,4-tetrahydroisoquinolin-4-yl)phenylsulfonamido)ethoxy)ethoxy)ethyl)-2,3-dihydroxysuccinamide] |  |  | < 2 ng·h/mL | < 2 ng/mL | >7 | 
CN1Cc2c(Cl)cc(Cl)cc2C(c2cccc(S(=O)(=O)NCCOCCOCCOCCNC(=O)c3cc(C(=O)NCCOCCOCCOCCNS(=O)(=O)c4cccc(C5CN(C)Cc6c(Cl)cc(Cl)cc65)c4)cc(C(=O)NCCOCCOCCOCCNS(=O)(=O)c4cccc(C5CN(C)Cc6c(Cl)cc(Cl)cc65)c4)c3)c2)C1 (stereo not drawn) [Example 215, N1,N3,N5-tris(2-(2-(2-(2-(3-(6,8-dichloro-2-methyl-1,2,3,4-tetrahydroisoquinolin-4-yl)phenylsulfonamido)ethoxy)ethoxy)ethoxy)ethyl)benzene-1,3,5-tricarboxamide] |  |  | < 2 ng·h/mL | < 2 ng/mL | >7 | 
CN1Cc2c(Cl)cc(Cl)cc2[C@H](c2ccc(S(=O)(=O)NCCOCCOCCOCCNC(=O)C(O)C(O)C(=O)NCCOCCOCCOCCNS(=O)(=O)c3ccc([C@@H]4CN(C)Cc5c(Cl)cc(Cl)cc54)cc3)cc2)C1 (single isomer, unassigned) [Example 225, N1,N4-bis(2-(2-(2-(2-(4-((S or R)-6,8-dichloro-2-methyl-1,2,3,4-tetrahydroisoquinolin-4-yl)phenylsulfonamido)ethoxy)ethoxy)ethoxy)ethyl)-2,3-dihydroxysuccinamide] |  | 0.1 to 1 µM | < 5.3 ng·h/mL | < 3.5 ng/mL |  | 

The next lines start with results.

Papp A→B at 3 h, 20 uM [1] | IC50 [2, 4] | AUC [3] | Cmax [3] | rat NHE-3 Average pIC50 [2, 4] | Structure (SMILES) | rat NHE-3 Average pIC50 [2]
0.2 ×10⁻⁶ cm/s |  |  |  |  | C/C(=C\c1cc(F)c(Oc2ccc(S(=O)(=O)Nc3ccc(P(=O)(O)O)cc3)cc2)c(F)c1)C(=O)N=C(N)N [Example 51, (E)-4-(4-(4-(3-(diaminomethyleneamino)-2-methyl-3-oxoprop-1-enyl)-2,6-difluorophenoxy)phenylsulfonamido)phenylphosphonic acid] | 
1.6 ×10⁻⁶ cm/s |  |  |  |  | C/C(=C\c1cc(F)c(Oc2ccc(S(=O)(=O)Nc3ccc(CP(=O)(O)O)cc3)cc2)c(F)c1)C(=O)N=C(N)N [Example 53, (E)-4-(4-(4-(3-(diaminomethyleneamino)-2-methyl-3-oxoprop-1-enyl)-2,6-difluorophenoxy)phenylsulfonamido)benzylphosphonic acid] | 
0.5 ×10⁻⁶ cm/s |  |  |  |  | C/C(=C\c1cc(F)c(Oc2ccc(S(=O)(=O)NCP(=O)(O)O)cc2)c(F)c1)C(=O)N=C(N)N [Example 56, (E)-(4-(4-(3-(diaminomethyleneamino)-2-methyl-3-oxoprop-1-enyl)-2,6-difluorophenoxy)phenylsulfonamido)methylphosphonic acid] | 
0.4 ×10⁻⁶ cm/s |  |  |  |  | C/C(=C\c1cc(F)c(Oc2ccc(S(=O)(=O)NC(=O)NCCN(C)C)cc2)c(F)c1)C(=O)N=C(N)N [Example 75, (E)-N-(diaminomethylene)-3-(4 (4-(N-(2-(dimethylamino)ethylcarbamoyl)sulfamoyl)phenoxy)-3,5-difluorophenyl)-2-methylacrylamide] | 
 | < 0.1 µM | < 4.4 ng·h/mL | < 2.7 ng/mL |  | C/C(=C\c1cc(F)c(Oc2ccc(S(=O)(=O)NCCOCCOCCOCCNC(=O)[C@H](O)[C@@H](O)C(=O)NCCOCCOCCOCCNS(=O)(=O)c3ccc(Oc4c(F)cc(/C=C(\C)C(=O)N=C(N)N)cc4F)cc3)cc2)c(F)c1)C(=O)N=C(N)N [Example 212, (2R,3R)—N1,N4-bis(2-(2-(2-(2-(4-(4-((E)-3-(diaminomethyleneamino)-2-methyl-3-oxoprop-1-enyl)-2,6-difluorophenoxy)phenylsulfonamido)ethoxy)ethoxy)ethoxy)ethyl)-2,3-dihydroxysuccinamide] | 
 |  | < 3 ng·h/mL | < 2.3 ng/mL | 6 to 7 | C/C(=C\c1cc(F)c(Oc2ccc(S(=O)(=O)NCCOCCOCCOCCOCCOCCOCCN)cc2)c(F)c1)C(=O)N=C(N)N [Example 211, (E)-3-(4-(4-(N-(20-amino-3,6,9,12,15,18-hexaoxaicosyl)sulfamoyl)phenoxy)-3,5-difluorophenyl)-N-(diaminomethylene)-2-methylacrylamide] | 
